Data on eight compounds can be found in patent US10239851B2 (priority 2014, dated 2019).

Data set [1] can be described thus: LD50 of the carboxylic acid derivative in mice via the caudal vein. To be noted: mouse, in vivo, intravenous, solution in physiological saline pH 7.4. The source says: In addition, the inventors dissolved the compound of the present invention having the following formula in physiological saline, adjusted the pH of the solution to 7.4, and administered the solution to mice through the caudal vein.

A short description of data set [2]: In vitro dissociation of the water soluble taxane derivatives in blood plasma of rat. It counts as in vitro ADME, SD rats. To be noted: 37° C. Here is the method:
The obtained water soluble taxane derivatives were formulated as 0.2 mg/ml aqueous solutions. […] After 2 min, 5 min and 10 min of incubation, 0.2 ml of solutions were respectively taken from each of the samples, and added to acetonitrile (0.4 ml) cooled to −20° C. for precipitation of protein.

The conditions of data set [3]: rats, 5 mg/kg intravenous, 5 min after administration.
Procedure: (§1) After 5 min of administration, 0.3 ml of venous blood was taken from the retrobulbar venous plexus of the rats, placed in heparinized tubes, and centrifuged at 11,000 rpm for 5 min. Plasma was separated, and the concentrations of the compounds in the plasma were determined by liquid chromatography □-mass spectrometry.
A short description of data set [4]: In vitro dissociation of the water soluble taxane derivatives in blood plasma of rabbit. The data set is classed as in vitro ADME, New Zealand white rabbits. As to conditions: 37° C. Here is the method:
The obtained water soluble taxane derivatives were formulated as 0.2 mg/ml aqueous solutions. […] After 5 min, 20 min and 60 min of incubation, 0.2 ml of solutions were respectively taken from each of the samples, and added to acetonitrile (0.4 ml) cooled to −20° C. for precipitation of protein.

A short description of data set [5]: in vivo. To be noted: male, SD, rat, iv, 5 mg/kg.
Procedure: After 5 min of administration, 0.3 ml of venous blood was taken from the retrobulbar venous plexus of the rats, placed in heparinized tubes, and centrifuged at 11,000 rpm for 5 min. Blood plasma was separated, and the concentrations of the compounds in the blood plasma were determined by liquid chromatography-mass spectrometry.
Data set [6] has as its system human ovarian cancer SK-OV-3.
Source text: Test of the inhibitory activity of the water soluble paclitaxel derivatives on subcutaneously xenografted tumor of human ovarian cancer SK-OV-3 in nude mice: evaluating and comparing the inhibitory activity of the water soluble paclitaxel derivatives of the present invention, paclitaxel and Abraxane® on subcutaneously xenografted tumor of human ovarian cancer SK-OV-3 in nude mice.
Human ovarian cancer SK-OV-3 cells were subcutaneously inoculated to nude mice. After the tumor volume reached 100-150 mm^3, the animals were randomly divided into groups (D0), and administered with the water soluble paclitaxel derivatives of the present invention, paclitaxel, and Abraxane®, respectively once per day for 5 days. The tumor volume was measured 2-3 times per week, the animals were weighed and the data were recorded until day 22 (D22) after grouping.
(§2) The tumor volume (V) was calculated according to the equation: V=½×a×b^2, wherein a and b represent the length and the width, respectively.
(§3) T/C (%)=(T−T0)/(C−C0)×100, wherein T and C represent the tumor volume at the end of the experiment; and T0 and C0 represent the tumor volume at the beginning of the experiment.
Data set [7] is described as follows: Solubility of the water soluble taxane derivatives in physiological saline. It counts as physicochemical.
Data set [8] relates to human prostate cancer PC-3. As to conditions: 14 mg/kg.
Source text: Test of the inhibitory activity of the water soluble docetaxel derivatives on subcutaneously xenografted tumor of human prostate cancer PC-3 in nude mice: evaluating and comparing the inhibitory activity of the water soluble docetaxel derivatives and docetaxel on subcutaneously xenografted tumor of human prostate cancer PC-3 in nude mice.
Human prostate cancer PC-3 cells were subcutaneously inoculated into nude mice. After the tumor volume reached 100-150 mm^3, the animals were randomly divided into several groups, and administered with the water soluble docetaxel derivatives of the present invention and docetaxel, respectively once on the same day (D0). The tumor volume was measured 2-3 times per week, the animals were weighed and the data were recorded until day 20 (D20) after grouping.
as §2, §3
Data set [9] can be described thus: in vivo. To be noted: male, SD, rat, iv, 5 mg/kg. The source holds these as a separate data set.
Procedure: as §1
The mark [10] stands for this setting: D22, 24 mg/kg (paclitaxel 16 mg/kg) D0-4 IV.
Where [11] appears, read: PC-3 xenograft, nude mice, D0 IV, single dose, D20.
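Throughout, for T/C (%) D20: human prostate cancer PC-3 cells implanted under the skin of nude mice to form the xenograft.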
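Throughout, for Tumor inhibitory percent (%) D20: human prostate cancer PC-3 cells implanted under the skin of nude mice to form the xenograft.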
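Throughout, for Tumor volume (mm^3) (D0): human prostate cancer PC-3 cells implanted under the skin of nude mice to form the xenograft.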
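Throughout, for Tumor volume (mm^3) (D20): human prostate cancer PC-3 cells implanted under the skin of nude mice to form the xenograft.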

The term LD50 denotes the dose at which mortality reaches 50%. Read a low LD50 as greater toxicity. Turning to `CN(C)CC[C@@H](F)C(=O)O.Cl`, in data set [1], the LD50 is greater than 1500 mg/kg.

For `CC(=O)OC12COC1CC(O)C1(C)C(=O)C(O)C3=C(C)C(OC(=O)C(OC(=O)C(F)CCN(C)C)C(NC(=O)OC(C)(C)C)c4ccccc4)CC(O)(C(OC(=O)c4ccccc4)C21)C3(C)C.Cl` [Compound 04, 2′-O-[4-(N,N-dimethyl)amino-2(R)-fluorobutyryl]docetaxel Hydrochloride], the dissociation percent turned out to be 58.6% in data set [2] (2 min); 92.6% in [2] (5 min); 100% in [2] (10 min); 80.2% in data set [4] (5 min); 93.5% in data set [4] (20 min); 100% in [4] (60 min). For the same compound, the “detection of the administered derivative in the blood plasma” value (from here on “detection of the administered derivative”) in [3] is “cannot be detected”.

The compound `CC(=O)O[C@H]1C(=O)[C@@]2(C)[C@H]([C@H](OC(=O)c3ccccc3)[C@]3(O)C[C@H](OC(=O)[C@H](O)[C@@H](NC(=O)c4ccccc4)c4ccccc4)C(C)=C1C3(C)C)[C@]1(OC(C)=O)CO[C@@H]1C[C@@H]2O` [paclitaxel, reference compound] had a concentration at 5 min in the data set “in vivo [5]” of 1790 ng/mL. Also, the “Tumor volume (D0)” value in [6] (D0, at grouping, 24 mg/kg (paclitaxel 16 mg/kg) D0-4 IV) came to 134.6 ± 19.7 mm^3. Besides, in data set [6] (setting [10]), the “T/C (%) D22” value is −60% and the “Tumor volume (D22)” value was 53.7 ± 11.2 mm^3. The “Tumor inhibitory percent (%) D22” value in [6] (D22, 24 mg/kg (paclitaxel 16 mg/kg) D0-4 IV, P=0.000 compared to the control) was found to be 160%. Also, the “Weight change (%) D4” value in [6] (mouse, in vivo) was −4.8%.

For the compound `CC(=O)O[C@@]12CO[C@@H]1C[C@H](O)[C@@]1(C)C(=O)[C@H](O)C3=C(C)[C@@H](OC(=O)[C@H](OC(=O)[C@@H](F)CCN(C)C)[C@@H](NC(=O)OC(C)(C)C)c4ccccc4)C[C@@](O)([C@@H](OC(=O)c4ccccc4)[C@H]21)C3(C)C.Cl` [Compound 05, 2′-O-[4-(N,N-dimethyl)amino-2(S)-fluorobutyryl]docetaxel hydrochloride], the dissociation percent stood at 56.4% in data set [2] (2 min); 91.1% in [2] (5 min); 100% in data set [2] (10 min); 79.3% in [4] (5 min); 91.8% in data set [4] (20 min); 100% in data set [4] (60 min). In addition, in data set [3], the “detection of the administered derivative” value was “cannot be detected”.

The term Solubility denotes the dissolved amount per volume that the medium holds. Read a low Solubility as a poorly soluble substance. As for `CC(=O)O[C@@]12CO[C@@H]1C[C@H](O)[C@@]1(C)C(=O)[C@H](O)C3=C(C)[C@@H](OC(=O)[C@H](OC(=O)C(F)(F)CCCCCN4CC4)[C@@H](NC(=O)OC(C)(C)C)c4ccccc4)C[C@@](O)([C@@H](OC(=O)c4ccccc4)[C@H]21)C3(C)C.CS(=O)(=O)O` [Compound 14, 2′-O-[7-N-(aziridin-1-yl)-2,2-difluoroheptanoyl]docetaxel methanesulfonate], the dissociation percent in data set [2] (2 min) is 42.1%; in data set [2] (5 min), 55.7%; in [2] (10 min) it was 72.5%. In data set [7], this compound displayed a Solubility of 14.3 mg/mL.

For `CC(=O)O[C@H]1C(=O)[C@@]2(C)[C@H]([C@H](OC(=O)c3ccccc3)[C@]3(O)C[C@H](OC(=O)[C@H](OC(=O)C(F)(CCCCCCN(C)C4CCCC4)C(F)(F)F)[C@@H](NC(=O)c4ccccc4)c4ccccc4)C(C)=C1C3(C)C)[C@]1(OC(C)=O)CO[C@@H]1C[C@@H]2O.CS(=O)(=O)O` (stereo partly drawn) [Compound 15, 2′-O-[8-(N-methyl-N-cyclopentyl)amino-2(R,S)-2-trifluoromethyl-2-fluorooctanoyl]paclitaxel methanesulfonate], the dissociation percent in data set [2] (2 min) was 35.0%; in data set [2] (5 min), 46.2%; in data set [2] (10 min), 57.9%. In data set [7], this compound returned a Solubility of 15.0 mg/mL.

Take `CC(=O)O[C@@]12CO[C@@H]1C[C@H](O)[C@@]1(C)C(=O)[C@H](O)C3=C(C)[C@@H](OC(=O)[C@H](OC(=O)C(F)CCN(C)C)[C@@H](NC(=O)OC(C)(C)C)c4ccccc4)C[C@@](O)([C@@H](OC(=O)c4ccccc4)[C@H]21)C3(C)C.Cl` (stereo partly drawn) [Compound 06, 2′-O-[4-(N,N-dimethyl)amino-2(R,S)-fluorobutyryl]docetaxel hydrochloride]: the dissociation percent in [2] (2 min) amounted to 56.4%; in [2] (5 min), 91.1%; in [2] (10 min), 100%; in data set [4] (5 min) it was 75.6%; in [4] (20 min), 98.6%; in [4] (60 min), 100%. For the same compound, in data set [3], the “detection of the administered derivative” value is “cannot be detected”.

As for `CC(=O)O[C@@]12CO[C@@H]1C[C@H](O)[C@@]1(C)C(=O)[C@H](O)C3=C(C)[C@@H](OC(=O)[C@H](O)[C@@H](NC(=O)OC(C)(C)C)c4ccccc4)C[C@@](O)([C@@H](OC(=O)c4ccccc4)[C@H]21)C3(C)C` [docetaxel, reference compound], the “Tumor volume (mm^3) (D0)” value in data set [8] (PC-3 xenograft, nude mice, D0 IV, single dose, D0 (baseline at grouping)) turned out to be 111.5 ± 1.3 mm^3. Besides, in [8] (setting [11]), the “T/C (%) D20” value is −27% and the “Tumor volume (mm^3) (D20)” value turned out to be 81.4 ± 25.1 mm^3. In addition, the “Tumor inhibitory percent (%) D20” value in [8] (PC-3 xenograft, nude mice, D0 IV, single dose, D20, P(D20)=0.000 vs control) is 127%. The “Weight change (%) D6” value in data set [8] (mouse, in vivo, iv) is −12.3%. Moreover, the concentration at 5 min in “in vivo [9]” was determined as 769 ng/mL.
